Assay: xn = mol fraction of the nth substance listed

O=[N+]([O-])c1ccccc1 + CCO
viscosity [mPa·s], 101.33 kPa
Conditions	x1 = 0.0399	x1 = 0.0856	x1 = 0.1382	x1 = 0.1997	x1 = 0.2723	x1 = 0.3595	x1 = 0.4661	x1 = 0.5995	x1 = 0.7711
298.15 K	1.06	1.048	1.061	1.073	1.116	1.166	1.201	1.317	1.44
303.15 K	0.9662	0.9579	0.9691	0.9809	1.01	1.068	1.085	1.207	1.312

C=COCCCC + CCOC(=O)OCC
viscosity [mPa·s], 100 kPa
Conditions	x2 = 0.1011	x2 = 0.2003	x2 = 0.2975	x2 = 0.4029	x2 = 0.4992	x2 = 0.6014	x2 = 0.6975	x2 = 0.7978	x2 = 0.9004
303.15 K	0.406	0.429	0.452	0.48	0.509	0.542	0.575	0.614	0.656
308.15 K	0.386	0.406	0.43	0.454	0.483	0.515	0.547	0.583	0.62
313.15 K	0.365	0.383	0.403	0.426	0.451	0.481	0.511	0.545	0.582

C=COCCCC + CCOC(=O)c1ccccc1
viscosity [mPa·s], 101 kPa
Conditions	x2 = 0.0939	x2 = 0.1857	x2 = 0.2804	x2 = 0.3768	x2 = 0.4748	x2 = 0.557	x2 = 0.6781	x2 = 0.7812	x2 = 0.8898
303.15 K	0.438	0.499	0.573	0.663	0.769	0.877	1.061	1.25	1.482
308.15 K	0.425	0.482	0.55	0.633	0.729	0.827	0.995	1.163	1.372
313.15 K	0.404	0.458	0.519	0.592	0.678	0.762	0.907	1.054	1.231

CCI + CCOC(C)=O
Conditions	viscosity [mPa·s]
298.15 K, 101 kPa, x2 = 0.7859	0.462

O=[N+]([O-])c1ccccc1 + CCOC(C)=O
viscosity [mPa·s], 101 kPa
Conditions	298.15 K	308.15 K
x1 = 0.1753	0.582	–
x1 = 0.4777	0.889	–
x1 = 0.6887	1.204	–
x2 = 0.0466	1.71	1.482
x2 = 0.1486	1.535	1.346
x2 = 0.2512	1.364	1.208
x2 = 0.3117	1.204	–
x2 = 0.3496	1.206	1.077
x2 = 0.4483	1.057	0.95
x2 = 0.4935	0.992	0.893
x2 = 0.5223	0.889	–
x2 = 0.5538	0.909	0.821
x2 = 0.6497	0.785	0.711
x2 = 0.7513	0.666	0.604
x2 = 0.8247	0.582	–
x2 = 0.8488	0.564	0.512
x2 = 0.9411	0.478	0.433

ClC(Cl)=C(Cl)Cl + CCOCCO
viscosity [mPa·s], 101.33 kPa
Conditions	x1 = 0.1174	x1 = 0.2104	x1 = 0.323	x1 = 0.4392	x1 = 0.5276	x1 = 0.6168	x1 = 0.7085	x1 = 0.8053	x1 = 0.9054
303.15 K	1.513	1.396	1.272	1.149	1.065	0.992	0.926	0.869	0.822
313.15 K	1.201	1.132	1.049	0.968	0.91	0.857	0.809	0.769	0.739

CCCCCO + CN(C)C=O
298.15 K, 101 kPa
Conditions	viscosity [mPa·s]
x2 = 0.4261	1.395
x2 = 0.5467	1.568

c1ccccc1 + CN(C)C=O
298.15 K
Conditions	viscosity [mPa·s]
101 kPa, x1 = 0.0257	0.799
101 kPa, x1 = 0.0509	0.795
101 kPa, x1 = 0.1031	0.783
101 kPa, x1 = 0.1578	0.765
101 kPa, x1 = 0.2083	0.759
101 kPa, x1 = 0.2579	0.75
101 kPa, x1 = 0.3129	0.7455
101 kPa, x1 = 0.3651	0.739
101 kPa, x1 = 0.4202	0.725
101 kPa, x1 = 0.469	0.711
101 kPa, x1 = 0.5167	0.7175
101 kPa, x1 = 0.5779	0.7
101 kPa, x1 = 0.6247	0.697
101 kPa, x1 = 0.6758	0.6825
101 kPa, x1 = 0.7167	0.671
101 kPa, x1 = 0.7855	0.653
101 kPa, x1 = 0.8262	0.643
101 kPa, x1 = 0.8944	0.6255
101 kPa, x1 = 0.9372	0.615
101 kPa, x1 = 0.9409	0.614
101 kPa, x1 = 0.9761	0.605
101.33 kPa, x1 = 0.1225	0.7645
101.33 kPa, x1 = 0.2494	0.7375
101.33 kPa, x1 = 0.4823	0.6925
101.33 kPa, x1 = 0.6236	0.6672
101.33 kPa, x1 = 0.7499	0.6477
101.33 kPa, x1 = 0.8733	0.6245
